≈ marks a conversion by molar mass, not a printed value.

The conditions of this data set: buffer; pH 7.4; 200.0 µM.
As usually defined, the solubility (kinetic) is solubility judged after dilution from a stock solution rather than from solid. On to `CCN(Cc1ccccc1)C(=O)c1ccc(Cl)cc1[N+](=O)[O-]`, for which the kinetic solubility was found to be 44.5 µg/mL (≈ 140 µM).
To `C=CCSc1nc2c(c(=O)[nH]1)C(c1ccccc1)C(C#N)=C(N)O2` (stereo not drawn) belongs 48.7 µg/mL (≈ 144 µM); to `Cc1ccsc1C(=O)Nc1ccc(OCc2ccccc2)cc1`, under 0.7 µg/mL; to `CC1=C(c2ccccc2)C(=S)NC(C)(C)C1`, 2.5 µg/mL (≈ 10.8 µM).
Take `O=C(CCC1CCN(Cc2ccccc2Cl)CC1)NC1CC1`: the solubility (kinetic) is over 48.1 µg/mL.
In turn, `CCc1nc(N2CCN(C(C)=O)CC2)c(C#N)c2c1COC(C)(C)C2` gave a kinetic solubility of over 51.4 µg/mL.
As to `O=C(CN1C(=O)c2ccccc2S1(=O)=O)Nc1ncc(Cl)cc1Cl`, the kinetic solubility was over 57.9 µg/mL.
`COc1cc(N2C(=O)CSC2=S)cc(OC)c1OC` yielded a solubility (kinetic) of 41 µg/mL (≈ 137 µM).
To `Cc1cccc(Oc2ccc(NC(=O)c3ccccc3C(=O)O)cc2)c1` belongs over 52.1 µg/mL.
Take `CC1(C)CC(NC(=O)c2cc(S(=O)(=O)N3CCOCC3)ccc2Cl)CC(C)(C)N1.Cl`: the kinetic solubility is over 72.1 µg/mL.
For the molecule `Cc1ccc(S(=O)(=O)N2CCN(C(=O)COC(=O)c3cc([N+](=O)[O-])ccc3NCCO)CC2)c(C)c1`, the solubility (kinetic) came out at 17 µg/mL (≈ 32.7 µM).
Regarding `C=CCc1ccccc1OCC(O)CNC1CCCC1.Cl` (stereo not drawn), the solubility (kinetic) is over 46.8 µg/mL.
To `O=C(COC(=O)c1ccc2ccccc2c1O)Nc1ccccc1` belongs 2.3 µg/mL (≈ 7.16 µM).
In turn, `CCOc1ccc(NC(=O)NCc2ccc3c(c2)OCO3)cc1` returned a solubility (kinetic) of 1.8 µg/mL (≈ 5.73 µM).
Regarding `Cc1cc(C)c2c(CC(=O)NN(C)C)coc2c1`, the kinetic solubility was over 36.9 µg/mL.
As for `C=CCOc1c(CNc2ccc3[nH]c(=O)[nH]c3c2)cccc1OC`, the solubility (kinetic) was over 48.8 µg/mL.
In the case of `Cn1c(SCc2ccc([N+](=O)[O-])cc2)nnc1-c1ccncc1`, the kinetic solubility is over 49.1 µg/mL.
Take `COc1ccc(C(=O)NCc2ccc3[nH]c(C)cc3c2)cc1OC`: the solubility (kinetic) stood at 23.5 µg/mL (≈ 72.4 µM).
For `CC(=O)Nc1ccc(NC(=O)CC(C)n2ccnc2)cc1` (stereo not drawn), the solubility (kinetic) came out at 40.8 µg/mL (≈ 142 µM).
Consider `Cc1cccc(NC(=O)c2ccc3c(c2)CCN3S(C)(=O)=O)c1C`, for which the solubility (kinetic) stood at 1.6 µg/mL (≈ 4.65 µM).
As to `C=CCNC(=O)c1cc(-c2ccncc2)nc2c(C)cc(C)cc12`, the kinetic solubility worked out at 2 µg/mL (≈ 6.3 µM).
As to `CN(c1ccccc1)c1nc(N)c([N+](=O)[O-])c(NCc2ccccc2)n1`, the solubility (kinetic) was under 0.1 µg/mL.
Consider `C=CCN1C(=O)C(CC(=O)O)SC1=Nc1cccc([N+](=O)[O-])c1` (stereo not drawn), for which the solubility (kinetic) was over 50.3 µg/mL.
`CC(=O)Nc1ccc(OCC(=O)N2CCc3ccccc3C2)cc1` came in with a kinetic solubility of over 48.7 µg/mL.
The molecule `CN1CCCN(C(=O)c2ccc(Br)s2)CC1` showed a kinetic solubility of over 45.5 µg/mL.
In turn, `O=C(Nc1ccc(Cl)c(S(=O)(=O)N2CCOCC2)c1)c1cc2ccccc2oc1=O` showed a solubility (kinetic) of 2.4 µg/mL (≈ 5.35 µM).
`COCCOc1ccc(C(F)(F)F)cc1NC(=O)CN1C(=O)NC2(CCCc3ccccc32)C1=O` (stereo not drawn) showed a kinetic solubility of 16.8 µg/mL (≈ 34.2 µM).
To `O=c1c2ccccc2nc2n1C(CSc1ccccc1)CS2` (stereo not drawn) belongs over 49 µg/mL; to `O=C(c1cccc(S(=O)(=O)N2CCc3ccccc32)c1)N1CCOCC1`, 54.8 µg/mL (≈ 147 µM).
For the molecule `O=C(O)/C=C/C(=O)Nc1ccc(C(=O)c2ccccc2)cc1`, the solubility (kinetic) was over 44.3 µg/mL.
In turn, `NS(=O)(=O)c1cccc(NC(=O)Nc2ccc(Cl)cc2)c1` came in with a kinetic solubility of 10.7 µg/mL (≈ 32.8 µM).
Take `NC(=O)c1cc([N+](=O)[O-])ccc1NCCc1ccccc1`: the solubility (kinetic) is under 0.2 µg/mL.
In turn, `COc1ccc(NC(=O)C2CCN(c3cnccn3)CC2)cc1OC` yielded a solubility (kinetic) of 24.7 µg/mL (≈ 72.1 µM).
Regarding `O=S(=O)(c1ccccc1)c1cnc(-c2ccccc2)nc1N1CCCC1`, the solubility (kinetic) is under 0.3 µg/mL.
`O=C1CN(C(=O)/C=C/c2ccc(Cl)cc2Cl)CCN1` yielded a kinetic solubility of 44.2 µg/mL (≈ 148 µM).
For the molecule `Cc1ccc(C2NCCS2)cc1` (stereo not drawn), the kinetic solubility is over 26.9 µg/mL.
Turning to `Cc1cccc(NC(=O)CCN2CCCC(C)C2)c1.Cl` (stereo not drawn), the solubility (kinetic) is over 44.5 µg/mL.
The molecule `CC(C)(C)n1cnc2cc(NC(=O)c3ccc(Cl)cc3)ccc21` returned a solubility (kinetic) of 33.4 µg/mL (≈ 102 µM).
To `CNC(=O)CSc1nc(-c2ccccc2)c(-c2ccccc2)o1` belongs 3.3 µg/mL (≈ 10.2 µM); to `FC(F)Oc1cccc(NC(=S)N2CCN(c3ccccn3)CC2)c1`, 2.3 µg/mL (≈ 6.31 µM).
As for `O=[N+]([O-])c1ccc(Oc2cccnc2)nc1`, the kinetic solubility came out at 25.5 µg/mL (≈ 117 µM).
`CC(C)c1c(O)nc(SCCOc2ccc(Cl)cc2)[nH]c1=O` came in with a solubility (kinetic) of 44.7 µg/mL (≈ 131 µM).
Molecule `COc1ccc(C(=O)Nc2cc(OC)c(Cl)cc2OC)cc1` showed a solubility (kinetic) of under 0.7 µg/mL.
In turn, `CCc1ccc(NC(=O)Nc2ccon2)cc1` showed a solubility (kinetic) of over 34.7 µg/mL.
Turning to `O=C(CCl)Nc1c[nH]c(=O)[nH]c1=O`, the solubility (kinetic) is over 30.5 µg/mL.
To `Cc1ccc(Cl)cc1NC(=O)CN1C(=O)NC(C)(C2CC2)C1=O` (stereo not drawn) belongs over 50.4 µg/mL; to `Cc1ccc(C(O)Cn2cc([N+](=O)[O-])nc2C)cc1` (stereo not drawn), over 39.2 µg/mL; to `Cc1nc(Nc2ccc(Cl)cc2)c(C#N)c(=O)[nH]1`, 9.6 µg/mL (≈ 36.8 µM).
As to `COc1cccc(NC(=O)C2CCCO2)c1` (stereo not drawn), the solubility (kinetic) was 30.5 µg/mL (≈ 138 µM).
To `O=C(/C=C/c1cccs1)NCc1cccs1` belongs 32.3 µg/mL (≈ 130 µM); to `Cc1c(Cl)cccc1NC(=O)CNC(=O)c1ccc2c(c1)OCCO2`, 18 µg/mL (≈ 49.9 µM).
`O=C(Cc1ccccc1)Nc1ccc(NC(=O)c2ccccc2)c(Cl)c1` displayed a solubility (kinetic) of 2.3 µg/mL (≈ 6.3 µM).
To `Cc1ccccc1-c1noc(CNC(=O)c2ccco2)n1` belongs over 42.5 µg/mL; to `CC(=O)c1ccc(-c2ccc(C(=O)NC3CCCCCC3)o2)cc1`, 6.7 µg/mL (≈ 20.6 µM).
For `COc1ccc(-n2ncc3c(=O)n(CC(C)=O)cnc32)cc1`, the solubility (kinetic) is over 44.7 µg/mL.
The molecule `COc1ccc(NC(=O)c2onc(C)c2Cl)cc1` showed a solubility (kinetic) of 10 µg/mL (≈ 37.5 µM).
In turn, `O=C(CCCN1C(=O)c2cccc3cccc(c23)C1=O)NCc1ccco1` returned a solubility (kinetic) of 1.5 µg/mL (≈ 4.14 µM).
In the case of `O=C1CCCN1C(=O)CSc1ccc2ccccc2n1`, the kinetic solubility worked out at 41.9 µg/mL (≈ 146 µM).
To `COc1ccc(NCCc2ccccn2)cc1.Cl` belongs over 45.2 µg/mL.
With `CSc1ncccc1C(=O)NCC(c1ccco1)N1CCCCC1` (stereo not drawn), the solubility (kinetic) is over 51.8 µg/mL.
Take `COc1cc2c(cc1OC)CC(C(=O)NCc1ccccc1)NC2` (stereo not drawn): the kinetic solubility was determined as 33.2 µg/mL (≈ 102 µM).
As to `N#CCCN(Cc1cccs1)C(=O)c1ccc(Cl)cc1`, the solubility (kinetic) is over 45.7 µg/mL.
In the case of `O=S(=O)(Nc1ccccn1)c1cccs1`, the kinetic solubility was over 36 µg/mL.
With `Cc1cn(Cc2ccccc2Cn2cc(C)c(=O)[nH]c2=O)c(=O)[nH]c1=O`, the solubility (kinetic) worked out at 52.3 µg/mL (≈ 148 µM).
On to `[Cl-].c1ccc(Cn2c[n+](Cc3ccccc3)c3ccccc32)cc1`, for which the kinetic solubility was determined as 42.9 µg/mL.
Turning to `O=C(COC(=O)[C@@H]1CCCN1C(=O)c1cccs1)Nc1cccc(Cl)c1`, the kinetic solubility was determined as 26.9 µg/mL (≈ 68.5 µM).
The molecule `CC(C)(C)OC(=O)CN1C(=O)NC2(CCCc3ccccc32)C1=O` (stereo not drawn) showed a kinetic solubility of over 49.6 µg/mL.
On to `CN1CCCN(C(=O)COc2ccc(F)cc2Cl)CC1`, for which the kinetic solubility was over 45.1 µg/mL.
`CN1CC(C#N)C2(O)c3ccccc3CCC2C1` (stereo not drawn): the kinetic solubility was over 36.3 µg/mL.
In the case of `CCC(C(=O)Nc1ccc(Cl)cc1)N1CCCC1=O` (stereo not drawn), the kinetic solubility amounted to 41.3 µg/mL (≈ 147 µM).
The molecule `CCOC(=O)c1ccsc1NC(=O)c1ccco1` came in with a kinetic solubility of under 0.6 µg/mL.
`O=C(NCc1ccccc1Br)c1ccncc1`: the solubility (kinetic) was 39.9 µg/mL (≈ 137 µM).
As for `Cc1ccc(NC(=O)NCCN2CCCCC2)cc1`, the solubility (kinetic) was over 39.2 µg/mL.

The values are drawn from PubChem BioAssay AID1996.
